Here are results for 12 compounds from ChEMBL document CHEMBL1201862, “PubChem BioAssay data set” (2004).

Common to all, as to assay: inhibition of tumour cell growth, NCI panel, 48 h
The subject of assay [1] is OVCAR-8.
Assay [2] relates to KM12.
The test system of assay [3] is UACC-62.
Assay [4] concerns LOX IMVI.
In assay [5] the test system is IGROV-1.
Assay [6] has as its system U-251.
Assay [7] deals with A498.
In assay [8] the test system is SNB-19.
Assay [9] relates to UO-31.
Assay [10] deals with HCT-116.
For assay [11], the system named is SR.
Assay [12] relates to SK-MEL-28.
The test system of assay [13] is SN12C.
The test system of assay [14] is SK-OV-3.
For assay [15], the system named is NCI-H522.
The subject of assay [16] is SK-MEL-2.
The test system of assay [17] is RPMI-8226.
The test system of assay [18] is HOP-92.
Assay [19] deals with OVCAR-4.

Structures are written as SMILES.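 Following 48 hours of exposure in 96-well plates, responses at five concentrations were used to interpolate endpoints linearly. GI50 marks 50% less growth.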 Activity calls are given as the source filed them. Cut-off read from the data, not from the text of the source: active = GI50 up to about 1.1 µM and inactive = higher. A value given as a limit tells only on which side of the number the result lay.

In the case of `Nc1nc(N)c2ncn(CCOC(c3ccccc3)P(=O)(O)O)c2n1` (stereo not given), the GI50 in [1], in [2], in [3], in assay [4], in [5] and in assay [6] was > 100 µM (inactive) each time. For the same compound, the GI50 in assay [7], in assay [8], in assay [9], in assay [10], in assay [11] and in [12] was > 100 µM (inactive) each time. Besides, the GI50 in [13], in assay [14], in assay [15] and in assay [16] was > 100 µM (inactive) each time.

Turning to `CC1=CCC[C@H]2[C@](C)(CC3=CC(=O)C(SCC(C)C)=CC3=O)[C@@H](C)CC[C@]12C`, the GI50 is 13.3 µM (inactive) in [1]; 11.2 µM (inactive) in assay [2]; 14.3 µM (inactive) in [3]; 7.41 µM (inactive) in assay [4]; 11 µM (inactive) in [5]; 14.3 µM (inactive) in assay [6]. Besides, the GI50 was 3.8 µM (inactive) in assay [17]; 18.8 µM (inactive) in assay [7]; 18.3 µM (inactive) in assay [8]; 11.7 µM (inactive) in assay [9]; 4.84 µM (inactive) in assay [18]; 12 µM (inactive) in [10]. Also, the GI50 was 7.29 µM (inactive) in [11]; 15.8 µM (inactive) in assay [12]; 24.9 µM (inactive) in [13]; 19.5 µM (inactive) in assay [14]; 15.3 µM (inactive) in assay [19]; 15.9 µM (inactive) in [16].

With `O=C(O)[C@@H]1CCCC[C@@H]1C(=O)N(C1CCCCC1)C1CCCCC1`, the GI50 in assay [1], in assay [2], in assay [3], in [4], in assay [5] and in assay [6] was > 100 µM (inactive) throughout. The GI50 in assay [17], in assay [7], in [9], in assay [18], in assay [10] and in assay [11] was > 100 µM (inactive) each time. Further, the GI50 in assay [12], in assay [13], in assay [14], in assay [15], in [19] and in assay [16] was > 100 µM (inactive) in each case.

For `CSc1nncc(-c2cc3c(c(SC)n2)CCCC3)n1`, the GI50 in [1] is 54.8 µM (inactive); in assay [2], > 100 µM (inactive); in assay [3], > 100 µM (inactive); in assay [6], > 100 µM (inactive); in assay [17], > 100 µM (inactive); in [7], > 100 µM (inactive). Further, the GI50 in [8], in assay [9], in assay [10], in [11], in [12] and in assay [13] was > 100 µM (inactive) each time. Also, the GI50 is 40.1 µM (inactive) in assay [14], 53.7 µM (inactive) in [15], > 100 µM (inactive) in assay [19] and > 100 µM (inactive) in assay [16].

Consider `CC(=O)CCn1[nH]c(=O)c(Cl)c(Cl)c1=O`, for which the GI50 in [1], in [2], in assay [3], in assay [4], in assay [5] and in assay [17] was > 100 µM (inactive) throughout. The GI50 is > 100 µM (inactive) in assay [7]; 15.3 µM (inactive) in [8]; > 100 µM (inactive) in assay [9]; > 100 µM (inactive) in [18]; > 100 µM (inactive) in assay [10]; > 100 µM (inactive) in assay [11]. Also, the GI50 in [12], in [13], in assay [19] and in [16] was > 100 µM (inactive) throughout.

As to `O=C1N2Cc3c4ccc5c3CN3C(=O)N6Cc7c(ccc(c7CN1C6(c1ccccc1)C23c1ccccc1)OCCOCCNCCOCCO4)OCCOCCNCCOCCO5` (stereo not given), the GI50 in assay [1] is 65 µM (inactive); in [2], 18.5 µM (inactive); in assay [3], 42.4 µM (inactive); in [5], 65.8 µM (inactive); in assay [6] it was 28.9 µM (inactive); in [17], 11.7 µM (inactive). Besides, the GI50 in [7] was > 100 µM (inactive); in assay [8], > 100 µM (inactive); in assay [9], 38.8 µM (inactive); in [18], 18 µM (inactive); in [10] it was 30.8 µM (inactive); in assay [11] it was 54.7 µM (inactive). The GI50 in assay [12] was > 100 µM (inactive); in assay [13] it was 19.5 µM (inactive); in assay [14], 85.9 µM (inactive); in assay [15], > 100 µM (inactive); in assay [19], > 100 µM (inactive); in [16] it was 59.7 µM (inactive).

As for `COCOCC/C=C/C=O`, the GI50 in assay [1], in assay [2], in assay [3], in assay [4], in [5] and in [6] was > 100 µM (inactive) in each case. Moreover, the GI50 in assay [17], in assay [7], in assay [8], in [9], in assay [18] and in assay [10] was > 100 µM (inactive) in each case. The GI50 in [11], in assay [12], in assay [13], in [14], in assay [15] and in assay [16] was > 100 µM (inactive) throughout.

Take `COc1cc(C)c2c(c1C)OC(=O)c1c(C)c(Cl)c(O)c(C=O)c1O2`: the GI50 in [1] is 10.2 µM (inactive); in assay [2] it was 15.4 µM (inactive); in assay [3] it was 15.7 µM (inactive); in assay [4], 16 µM (inactive); in [5], 24.2 µM (inactive); in assay [6], 6.41 µM (inactive). Also, the GI50 in assay [17] was 14 µM (inactive); in assay [7], 13.9 µM (inactive); in assay [8] it was 19.1 µM (inactive); in assay [9] it was 11.2 µM (inactive); in [10], 20.8 µM (inactive); in [11], 14.3 µM (inactive). Also, the results for the GI50 in assay [13] and in assay [14] were 21.8 µM (inactive) and 23.4 µM (inactive), respectively.

`Cc1cc(N(CCC#N)CCC#N)ccc1/N=N/c1ccc([N+](=O)[O-])cc1`: the GI50 is 23 µM (inactive) in assay [1]; > 100 µM (inactive) in assay [2]; > 10 µM (inactive) in assay [3]; 25.1 µM (inactive) in [4]; 18.6 µM (inactive) in assay [6]; 44.9 µM (inactive) in assay [17]. Also, the GI50 is > 100 µM (inactive) in assay [7]; 22 µM (inactive) in assay [8]; > 100 µM (inactive) in assay [9]; 55 µM (inactive) in [18]; 17.7 µM (inactive) in assay [10]; > 100 µM (inactive) in assay [11]. The GI50 in [12] is > 100 µM (inactive); in assay [13], 65.8 µM (inactive); in [14], > 10 µM (inactive); in assay [15], > 100 µM (inactive); in assay [19], 19.7 µM (inactive); in [16], > 100 µM (inactive).

With `CC(=O)NC1(c2cc3ccccc3s2)CCCCCC1`, the GI50 is 50.9 µM (inactive) in assay [1]; 41.8 µM (inactive) in assay [2]; 31.3 µM (inactive) in assay [3]; 47.9 µM (inactive) in [4]; 66.4 µM (inactive) in assay [5]; 40.8 µM (inactive) in [6]. Also, the GI50 in [7] was 43.4 µM (inactive); in assay [8], 74.5 µM (inactive); in assay [9] it was 37.2 µM (inactive); in assay [18], 59.3 µM (inactive); in assay [10], 35.3 µM (inactive); in [11], 28.4 µM (inactive). Besides, the GI50 in [12] was 54 µM (inactive); in assay [13], 42.3 µM (inactive); in assay [14] it was 37.1 µM (inactive); in [15] it was 20.7 µM (inactive); in assay [19], 38.5 µM (inactive); in [16] it was 33 µM (inactive).

For `c1ccc(-c2nc3ccccc3n3nnnc23)cc1`, the GI50 in [2], in [3], in assay [4], in assay [5], in assay [6] and in assay [17] was > 100 µM (inactive) each time. In addition, the GI50 was > 100 µM (inactive) in [7]; 75.7 µM (inactive) in [8]; 0.424 µM (active) in assay [9]; > 100 µM (inactive) in assay [18]; > 100 µM (inactive) in assay [10]; > 100 µM (inactive) in assay [11]. Besides, the GI50 in [12], in assay [13], in assay [14], in assay [19] and in assay [16] was > 100 µM (inactive) throughout.

As to `CC(C)(SCc1ccccc1)C(N)C(=O)O` (stereo not given), the GI50 in assay [1], in assay [2], in [3], in assay [4], in [5] and in assay [6] was > 100 µM (inactive) throughout. Moreover, the GI50 in assay [17], in [7], in assay [8], in assay [9], in [18] and in assay [10] was > 100 µM (inactive) throughout. Besides, the GI50 in assay [11], in assay [12], in [13], in [15], in assay [19] and in assay [16] was > 100 µM (inactive) throughout.
